Assay [1] concerns the target T1, human GPR139 receptor (Homo sapiens, UniProt Q6DWJ6).
T1 construct: expressed in transfected cells; host or cells: T-REx-CHO (Thermo Fisher Scientific), doxycycline-induced
T1 sequence (Q6DWJ6 1-353): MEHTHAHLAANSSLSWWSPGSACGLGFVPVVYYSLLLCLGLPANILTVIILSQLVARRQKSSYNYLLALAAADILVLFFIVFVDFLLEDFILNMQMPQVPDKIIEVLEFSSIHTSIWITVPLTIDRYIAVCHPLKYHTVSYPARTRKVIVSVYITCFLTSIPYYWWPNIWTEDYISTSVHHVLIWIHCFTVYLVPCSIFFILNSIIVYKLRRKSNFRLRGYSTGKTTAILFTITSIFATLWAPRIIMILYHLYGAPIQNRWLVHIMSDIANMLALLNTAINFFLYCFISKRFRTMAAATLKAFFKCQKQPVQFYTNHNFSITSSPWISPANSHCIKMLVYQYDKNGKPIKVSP
Put plainly: GPR139 Competition Binding (membrane-based, tritium-labeled ligand). As to conditions: T-REx-CHO membranes with human GPR139; 6.5 nM tritium-labeled ligand; 11-point curve, 30 μM maximum concentration; read-out: GPR139 Binding Affinity (pKi) (converted). The protocol: OPR139 Competition Binding
This membrane-based assay measures the ability of compounds to competitively bind GPR139 in stably transfected TREx™-CHO membranes. To prepare the membranes, T-REx™-CHO (Thermo Fisher Scientific®) cells are stably expressed with human GPR139 receptor, whose expression is controlled by a tetracycline-inducible element. The cells are cultured in medium containing F-12K nutrient mixture-Kaighn's modification, 10% tetracycline-free FBS, Blasticidin S HCl (10 μg/mL) and Hygromycin B (200 μg/mL). GPR139 receptor expression is induced for 18 hours with 2 μg/mL doxycycline (Sigma D9891) in growth media. After addition of doxycycline, cells are harvested in PBS and pelleted by centrifugation for 5 minutes at 200×G. Liquid is aspirated off and cells are resuspended in ice cold lysis buffer (20 mM HEPES/5 mM EDTA pH 7.4/1× Roche® protease inhibitor). Samples are vortexed until homogenous and then placed on ice and homogenized using a Dounce homogenizer at 50% power (3 cycles, 10 strokes per cycle). Lysate is centrifuged at 4° C. for 10 minutes in a tabletop Sorvall® centrifuge at 2000×G. The supernatant is recovered and centrifuged in a Sorvall® ultracentrifuge at 35,000 rpm for 30 minutes at 4° C. The supernatant is discarded, and the remaining pellet resuspended in lysis buffer (20 mM HEPES/0.1 mM EGTA/Roche® protease inhibitor). Membrane protein concentration is determined using Thermo Fisher® BCA quantification kit and is aliquoted into microtubes. Tubes are snap frozen in liquid nitrogen and stored at −80° C. Prior to use, the membranes are removed from cold storage, thawed to room temperature, vortexed until homogenous and diluted in assay buffer (20 mM HEPES pH 7.3, 5 mM MgCl2, 1 mM CaCl2), 1× Thermo Scientific® Halt™ protease inhibitor (78429)).
The assay is run in 96-well, polypropylene, v-bottom plates (Greiner Bio-One® 651201). Test compound in DMSO is added to the wells of each plate (11-point dose response curve, 30 μM maximum concentration, 3-fold serial dilution). A fixed amount of tritium-labeled ligand, (S)-2-(2,3-dimethyl-7-oxothieno[2,3-d]pyridazin-6(7H)-yl)-N-(1-(4-methoxyphenyl-2-t)propan-2-yl)acetamide (Quotient Bioresearch) in assay buffer (6.5 nM assay concentration) is added to each well of the assay plate, which is then agitated on a plate shaker for 30 seconds. Next, a fixed amount of membranes in assay buffer (2 μg membranes) is added to each well of the assay plate, which is then spun for 30 seconds at 300 rpm in a tabletop Eppendorf centrifuge, and then incubated at room temperature for 20 minutes. Using a Tomtec harvester, the contents of the assay plate are transferred to Filtermat A (PerkinElmer® No. 1450-421) which prior to use is pre-soaked in 0.5% PEI (Sigma P3143) for 3 hours and dried at room temperature overnight. Following transfer, the Filtermat is washed 5 times with cold wash buffer (20 mM HEPES pH 7.3, 100 mM NaCl). The Filtermat is dried using a microwave oven and placed in a sample bag (PerkinElmer® No. 1450-432) with a scintillator sheet (PerkinElmer® No. 1450-411). The scintillator sheet is melted to the Filtermat using a heat block set to 65° C., placed in a MicroBeta® cartridge and read using a MicroBeta® scintillation counter. Binding curves are generated with a four-parameter logistic equation using GraphPad Prism® 6 and the inhibition constant Ki is reported as pKi.

Assay [2] deals with T1, human GPR139 receptor. Put plainly: Measurement of GPR139 Activation Via Calcium Signaling (FLIPR, T-REx-CHO cells). As to conditions: T-REx-CHO cells stably expressing human GPR139, 11-point dose response, 10 μM maximum concentration, read-out: GPR139 Potency (pEC50) (converted). It counts as cell-based. The method, then:
Measurement of GPR139 Activation Via Calcium Signaling
This cell-based assay measures the ability of compounds to activate GPR139 in stably transfected T-REx™-CHO cells. T-REx™-CHO cells (Thermo Fisher Scientific®) are stably expressed with human GPR139 receptor, whose expression is controlled by a tetracycline-inducible element. The cells are cultured in medium containing F-12K nutrient mixture-Kaighn's modification, TripleLE™ Express (1×)-phenol red, Dulbecco's phosphate-buffered saline (1×), 10% tetracycline-free FBS, Blasticidin S HCl (10 μg/mL) and Hygromycin B (200 μg/mL). The cells are introduced into the wells of a 384-well black clear bottom plate (Costar®) at 10,000 cells/well. GPR139 receptor expression is induced with 2 μg/mL doxycycline (Sigma D9891). The plate is allowed to stand at room temperature for 10-30 minutes and then incubated at 37° C. and 5% CO2 for 17 hours prior to assay.
Culture media is removed from cells and 45 μL of 1× calcium dye (2.5 mM) is added to each well and incubated at 37° C. and 5% CO2 for 40 minutes. The plate is removed from the incubator and allowed to stand at RT for 20 minutes without a plate cover prior to measurement of calcium signaling. The calcium dye is prepared by adding 10 mL of assay buffer (Hank's Balanced Salt Solution (1×), 1 mM HEPES at pH 7.4) to one vial of calcium dye (FLIPR® Calcium 5 Assay Kit; Molecular Devices) at room temperature, vortexing the mixture until homogenous, and transferring the dye to a 250 mL flask using 10 mL of assay, buffer to rinse the vial. The dye is subsequently transferred to a conical flask, which is filled to the 200 mL mark with assay buffer, and 1 mL of […] probenecid solution (142.68 mg/mL in 1M NaOH aq) is added.
Example compounds suspended in DMSO are received from compound management in microtiter plates (0.25 μL/well) and are diluted in assay buffer (25 μL). Following incubation of the cell plate, the Example compounds are added to the cells (11-point dose response, 10 μM maximum concentration) using a FLIPR® Tetra system (Molecular Devices) and fluorescence is measured continuously for 1 minute. EC50 curves are generated with a four-parameter logistic equation using GraphPad Prism® 6, and activation of GPR139 for each example compound is reported as pEC50.

As to `Cc1nn(CC(=O)N[C@@H](C)c2ccc(OC(F)(F)F)cc2)c(=O)c2c1cnn2C(C)(C)C` [Example 15, (S)-2-(1-(tert-butyl)-4-methyl-7-oxo-1,7-dihydro-6H-pyrazolo[3,4-d]pyridazin-6-yl)-N-(1-(4-(trifluoromethoxy)phenyl)ethyl)acetamide], at human GPR139 receptor [1], the Ki was 0.0575 µM. Moreover, the EC50 on human GPR139 receptor [2] was 0.617 µM.

For the molecule `Cc1ccc([C@H](C)NC(=O)Cn2nc(C)c3cnn(C(C)(C)C)c3c2=O)c(F)c1` [Example 16, (S)-2-(1-(tert-butyl)-4-methyl-7-oxo-1,7-dihydro-6H-pyrazolo[3,4-d]pyridazin-6-yl)-N-(1-(2-fluoro-4-methylphenyl)ethyl)acetamide], the Ki on human GPR139 receptor [1] was 0.011 µM. Moreover, the EC50 on human GPR139 receptor [2] is 0.2 µM.

For the molecule `COc1ccc([C@H](C)NC(=O)Cn2ncc3c(c(C)nn3C(C)C)c2=O)cc1` [Example 17, (S)-2-(1-isopropyl-3-methyl-4-oxo-1,4-dihydro-5H-pyrazolo[3,4-d]pyridazin-5-yl)-N-(1-(4-methoxyphenyl)ethyl)acetamide], the Ki at human GPR139 receptor [1] was 2.95 µM. Moreover, at human GPR139 receptor [2], the EC50 was 0.0575 µM.

As for `COc1ccc([C@H](C)NC(=O)Cn2ncc3c(c(C4CC4)nn3C(C)C)c2=O)cc1` [Example 18, (S)-2-(3-cyclopropyl-1-isopropyl-4-oxo-1,4-dihydro-5H-pyrazolo[3,4-d]pyridazin-5-yl)-N-(1-(4-methoxyphenyl)ethyl)acetamide], at human GPR139 receptor [1], the Ki was 0.355 µM. On human GPR139 receptor [2], the EC50 is 0.17 µM.

Consider `COc1ccc([C@H](C)NC(=O)Cn2ncc3c(c(C)nn3C)c2=O)c(F)c1` [Example 19, (S)-2-(1,3-dimethyl-4-oxo-1,4-dihydro-5H-pyrazolo[3,4-d]pyridazin-5-yl)-N-(1-(2-fluoro-4-methoxyphenyl)ethyl)acetamide], for which, at human GPR139 receptor [1], the Ki was 1.07 µM. For the same molecule, at human GPR139 receptor [2], the EC50 was 0.0676 µM.

Turning to `Cc1ccc([C@H](C)NC(=O)Cn2nc(C)c3c(C)nn(C)c3c2=O)cc1` [Example 20, (S)—N-(1-(p-tolyl)ethyl)-2-(1,3,4-trimethyl-7-oxo-1,7-dihydro-6H-pyrazolo[3,4-d]pyridazin-6-yl)acetamide], the Ki at human GPR139 receptor [1] was 0.178 µM. Further, the EC50 on human GPR139 receptor [2] was 0.0417 µM.

For `Cc1ccc([C@H](C)NC(=O)Cn2nc(C)c3c(C)nn(C(C)C)c3c2=O)cc1` [Example 21, (S)-2-(1-isopropyl-3,4-dimethyl-7-oxo-1,7-dihydro-6H-pyrazolo[3,4-d]pyridazin-6-yl)-N-(1-(p-tolyl)ethyl)acetamide], the Ki at human GPR139 receptor [1] was 0.0282 µM. Besides, the EC50 on human GPR139 receptor [2] is 0.115 µM.

Turning to `Cc1ccc([C@H](C)NC(=O)Cn2nc(C)c3c(C)nn(C4CC4)c3c2=O)cc1` [Example 22, (S)-2-(1-cyclopropyl-3,4-dimethyl-7-oxo-1,7-dihydro-6H-pyrazolo[3,4-d]pyridazin-6-yl)-N-(1-(p-tolyl)ethyl)acetamide], the Ki on human GPR139 receptor [1] was 0.00912 µM. Also, the EC50 on human GPR139 receptor [2] is 0.105 µM.

Consider `Cc1ccc([C@H](C)NC(=O)Cn2ncc3c(C)nn(C(C)C)c3c2=O)cc1` [Example 23], for which the Ki on human GPR139 receptor [1] was 0.102 µM. Moreover, on human GPR139 receptor [2], the EC50 was 0.166 µM.

As to `Cc1nn(C2CC2)c2cnn(CC(=O)N[C@@H](C)c3ccc(Cl)cc3F)c(=O)c12` [Example 24, (S)—N-(1-(4-chloro-2-fluorophenyl)ethyl)-2-(1-cyclopropyl-3-methyl-4-oxo-1,4-dihydro-5H-pyrazolo[3,4-d]pyridazin-5-yl)acetamide], the Ki at human GPR139 receptor [1] was 0.0977 µM. Besides, the EC50 at human GPR139 receptor [2] is 0.0468 µM.

`Cc1nn(C2CC2)c2cnn(CC(=O)N[C@@H](C)c3cccc(F)c3)c(=O)c12` [Example 25, (S)-2-(1-cyclopropyl-3-methyl-4-oxo-1,4-dihydro-5H-pyrazolo[3,4-d]pyridazin-5-yl)-N-(1-(3-fluorophenyl)ethyl)acetamide]: the Ki on human GPR139 receptor [1] was 0.617 µM. Also, the EC50 on human GPR139 receptor [2] was 0.0234 µM.

Turning to `Cc1ccc(C)c([C@H](C)NC(=O)Cn2ncc3c(c(C)nn3C3CC3)c2=O)c1` [Example 26, (S)-2-(1-cyclopropyl-3-methyl-4-oxo-1,4-dihydro-5H-pyrazolo[3,4-d]pyridazin-5-yl)-N-(1-(2,5-dimethylphenyl)ethyl)acetamide], the Ki on human GPR139 receptor [1] was 38.9 µM. Moreover, at human GPR139 receptor [2], the EC50 was 0.933 µM.

With `Cc1ccc([C@H](C)NC(=O)Cn2ncc3c(C)nn(C)c3c2=O)cc1` [Example 27, (S)-2-(1,3-dimethyl-7-oxo-1,7-dihydro-6H-pyrazolo[3,4-d]pyridazin-6-yl)-N-(1-(p-tolyl)ethyl)acetamide], the Ki on human GPR139 receptor [1] was 0.219 µM. Further, the EC50 on human GPR139 receptor [2] is 0.24 µM.

For `Cc1ccc([C@H](C)NC(=O)Cn2ncc3c(C)nn(C4CC4)c3c2=O)cc1` [Example 28, (S)-2-(1-cyclopropyl-3-methyl-7-oxo-1,7-dihydro-6H-pyrazolo[3,4-d]pyridazin-6-yl)-N-(1-(p-tolyl)ethyl)acetamide], the Ki at human GPR139 receptor [1] is 0.0324 µM. The EC50 at human GPR139 receptor [2] is 0.0525 µM.

On to `Cc1ccc([C@H](C)NC(=O)Cn2nc(C)c3c(ncn3C)c2=O)cc1` [Example 29, (S)-2-(1,7-dimethyl-4-oxo-1,4-dihydro-5H-imidazo[4,5-d]pyridazin-5-yl)-N-(1-(p-tolyl)ethyl)acetamide], for which, on human GPR139 receptor [1], the Ki is 30.2 µM. Besides, the EC50 at human GPR139 receptor [2] was 0.513 µM.

The values above are taken from patent US12370192B2, “Azole-fused pyridazin-3(2H)-one derivatives” (TAKEDA PHARMACEUTICAL COMPANY LIMITED, priority 2019, dated 2025).
